# Patent publication US8729048B2, “Methods and materials for assessing responsiveness to PARP inhibitors and platinating agents” (Mayo Foundation for Medical Education and Research, priority 2011, dated 2014)
# Columns and labels:
# [1] = system: MMEJ activity in PEO4 cells; assay: Microhomology mediated end-joining assay (MMEJ), PEO4; type: cell-based; conditions: 72 hours
# Text: FIG. 11. PARP inhibition fails to induce microhomology-mediated end-joining (MMEJ). (A) Schematic of the reporter substrate used to assay for MMEJ activity. Cleavage of pDVG94 with EcoRV and AfeI creates a blunt-ended linearized substrate, with identical 6-bp ends. Direct joining by NHEJ will result in maintenance of both repeats, but MMEJ will excise one repeat, introducing a new BstXI site. PCR across recircularized substrate produces a product of 180 bp, which can be cut into 120 and 60 bp fragments if the BstXI site was created. This figure is adapted from a figure provided elsewhere (Verkaik et al., Eur. J. Immunol., 32:701-709 (2002)). (B) and (C) Agarose gel from a representative MMEJ assay. PEO1 (B, lanes 1-10) and PEO4 (C) cells were treated with increasing concentrations of ABT-888 following transfection with linearized pDVG94. The size of the initial PCR product (180 bp) as well as BstXI cleaved products (120 bp and 60 bp) are indicated. As a positive and negative control, a cell line previously documented to undergo MMEJ (Lou et al., J. Biol. Chem., 279:46359-46362 (2004)), M059J (B, lanes 11 and 12), and a MMEJ-negative line, M059J+DNA-PKcs (B, lanes 13 and 14) were used. Images were captured from one gel and cut to create two panels. […]
# [2] = system: poly(ADP-ribose) polymer (pADPr) in PEO1 cells; assay: Immunoblotting for poly(ADP-ribose) polymer; type: cell-based; conditions: 72 hours, ABT-888 0-40 μM
# Procedure: FIG. 2. DNA-PK is activated following PARP inhibitor exposure in PEO1 cells. (A) Western blots for poly(ADP-ribose) polymer (pADPr) and phosphorylation of DNA-PK substrates (DNA-PKcs autophosphorylation at Thr^2609 and Histone H2AX at Ser^139) in PEO1 cells following 72 hours exposure to increasing concentrations of ABT-888 (0, 0.625, 1.25, 2.5, 5, 10, 20, and 40 μM). Hsp90, total DNA-PKcs, and Histone H1 are used as loading controls. […] (C) Quantitation of cells positive for phospho-H2AX foci in PEO1 and PEO4 cells, following treatment with DMSO, 500 nM DNA-PKi, 20 μM ABT-888 (ABT), ABT-888 and DNA-PKi, 50 μM Etoposide (Etop), or 5 Gy ionizing radiation (IR). […]
# Cells were washed twice with calcium- and magnesium-free Dulbecco's phosphate-buffered saline (PBS) and solubilized in 6 M guanidine hydrochloride containing 250 mM Tris-HCl, pH 8.5 at 20° C., 10 mM EDTA, 1% (v/v) 2-mercaptoethanol, and 1 mM freshly added phenylmethylsulfonyl fluoride. After preparation for electrophoresis as described elsewhere (Kaufmann et al., Blood, 89:2098-2104 (1997)), aliquots containing 50 μg of protein (determined by the bicinchoninic acid method—S10) were separated on SDS-polyacrylamide gels containing 8% (w/v) acrylamide, electrophoretically transferred to nitrocellulose, and probed with immunological reagents as described elsewhere (Kaufmann, Anal. Biochem., 296:283-286 (2001)). […]
smiles,measurement,setting,value
C[C@]1(c2nc3c(C(N)=O)cccc3[nH]2)CCCN1 [ABT-888],induction of MMEJ,[1],not detected
same,poly(ADP-ribosyl)ation,[2],decreased
